Measured values taken from patent US20220146526A1, “METHOD FOR EVALUATING SAMPLE, ANALYSIS METHOD, METHOD FOR DETECTING DEGRADED SAMPLE, MARKER FOR DETECTING DEGRADED BLOOD PLASMA SAMPLE, AND MARKER FOR DETECTING DEGRADED SERUM SAMPLE” (SHIMADZU CORPORATION, priority 2019, published 2022).

What was measured:
Format in all cases: physicochemical, human
[1] = GC/MS of serum sample: number of times of freezing and thawing (Table I); set-up: key to Rate of increase or decrease / Rate of increase or decrease (first value, increase): detection intensity relative to 2 freeze-thaw cycles = 1; settings: serum, GC/MS; for Rate of increase or decrease: detection intensity relative to 1 at 2 times; for Increase or decrease: detection intensity
In short: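 Detection intensities are ratios to the value after two freeze–thaw cycles, which is set as 1, compared against 4, 6 and 10 cycles. Analysis used methoxymation and trimethylsilylation derivatization, then GC/MS with EI ionization and multiple reaction monitoring on a BPX5 column. Serum came from blood held at room temperature and spun at 3500 rpm for 5 min.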

[2] = LC/MS of serum sample: time from blood collection to centrifugation (Table J); settings: for Rate of increase or decrease: detection intensity relative to 1 at 15 minutes; for Increase or decrease / Time when compound is affected: serum sample, LC/MS; for Increase or decrease: detection intensity vs 15 minutes from blood collection to centrifugation; for Time when compound is affected: time from blood collection to centrifugation, detection intensity changed by 30% or more vs 15 minutes
Experimental: After standing, the blood sample was subjected to centrifugation under a condition of room temperature, 3500 rpm, and 5 minutes. […] After centrifugation, the blood-collecting vessel was left to stand at room temperature, and the serum was isolated during this time. Here, in order to investigate how the detection intensity of molecules contained in the sample was affected in cases where the time during which the blood-collecting vessel was left at room temperature was set to 1 hour and 6 hours as compared to that in a case where the time was set to 30 minutes, preparations were performed under the respective conditions of 30 minutes, 1 hour, and 6 hours. The obtained serum sample was frozen and stored. Here, in order to investigate how the detection intensity of molecules contained in the sample was affected in cases where freezing and thawing was performed 4 times, 6 times, and 10 times after freezing as compared to that in a case where freezing and thawing was performed 2 times after freezing, freezing and thawing was performed under the respective conditions of 2, 4, 6, and 10 times.
(§1) Frozen blood plasma samples and serum samples were subjected to GC/MS or LC/MS. In GC/MS, the blood plasma samples and serum samples were subjected to methoxymation and trimethylsilylation and then introduced to GC-MS.
(§2) Analysis column: Discovery HS F5-3 (inner diameter of 2.1 mm, length of 150 mm, film thickness of 3 μm) (Sigma-Aldrich)
(§3) Column temperature: 40° C.
(§4) (A) 0.1% formic acid (dissolved in water)
(§5) (B) 0.1% formic acid (dissolved in acetonitrile)
(§6) Flow velocity: 0.25 mL/min
(§7) Ionization method: electrospray
(§8) Temperature: • Desolvation Line (DL) temperature: 250° C. • Heat block temperature: 400° C. • Interface temperature: 300° C.
(§9) Gas flow rate: • Nebulizer gas flow rate: 3.0 L/min • Drying gas flow rate: 10.0 L/min • Heating gas flow rate: 10.0 L/min
(§10) Mode: multiple reaction monitoring (MRM)
The rate of increase or decrease in Table J is the value of detection intensity relative to 1 that is the detection intensity in a case where the time from blood collection to centrifugation is set to 15 minutes.

[3] = LC/MS of blood plasma sample: time from blood collection to centrifugation (Table D); settings: for Rate of increase or decrease: detection intensity relative to 1 at 15 minutes; for Rate of increase or decrease / Increase or decrease: blood collection to centrifugation; for Increase or decrease: detection intensity
Experimental: (§11) At room temperature, 5 mL of blood from a healthy subject was taken into a blood-collecting vessel containing EDTA, and the blood-collecting vessel was inverted for mixing, then cooled, and allowed to stand at 4° C. Here, in order to investigate how the detection intensity of molecules contained in the sample was affected in a case where the time to cooling was set to 5 minutes or more as compared to that in a case where the time to cooling was set to 1 minute or less, preparations were performed under both the former condition and the latter condition. After standing, the blood sample was subjected to centrifugation under a condition of 4° C., 3000 rpm, and 15 minutes. […] After centrifugation, the blood-collecting vessel was left to stand at room temperature for 30 minutes, and the blood plasma was isolated during this 30 minutes. The obtained blood plasma sample was frozen and stored. Here, in order to investigate how the detection intensity of molecules contained in the sample was affected in cases where freezing and thawing was performed 4 times, 6 times, and 10 times after freezing as compared to that in a case where freezing and thawing was performed 2 times after freezing, freezing and thawing was performed under the respective conditions of 2, 4, 6, and 10 times.
as §1, §2, §3, §4, §5, §6, §7, §8, §9, §10
The rate of increase or decrease in Table D is the value of detection intensity relative to 1 that is the detection intensity in a case where the time from blood collection to centrifugation is set to 15 minutes.

[4] = LC/MS of blood plasma sample: number of times of freezing and thawing (Table F); settings: for Rate of increase or decrease: detection intensity relative to 1 at 2 times; for Increase or decrease: detection intensity
Experimental: as §11, §1, §2, §3, §4, §5, §6, §7, §8, §9, §10
The rate of increase or decrease in Table F is the value of detection intensity relative to 1 that is the detection intensity in a case where the number of times of freezing and thawing is set to 2 times.

[5] = LC/MS of serum sample: number of times of freezing and thawing (Table M); set-up: key to Rate of increase or decrease: detection intensity relative to 1 at 2 freeze-thaw cycles; settings: for Number of times when compound is affected / Increase or decrease: serum sample, LC/MS; for Number of times when compound is affected: detection intensity changed by 30% or more vs 2 times of freezing and thawing; for Increase or decrease: detection intensity vs 2 times of freezing and thawing
In short: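 Values are detection intensities relative to serum thawed twice, versus 4, 6 or 10 freeze-thaw cycles. Serum came from blood spun at room temperature, 3500 rpm for 5 minutes. Analysis: electrospray LC/MS in MRM mode, Discovery HS F5-3 column, 40° C, 0.1% formic acid in water and acetonitrile.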

[6] = GC/MS of blood plasma sample: time from blood collection to cooling of blood (Table B); set-up: key to Rate of increase or decrease / Rate of increase or decrease (first value, increase): detection intensity relative to 1 at cooling time ≤1 min
Experimental: as §11, §1
GC/MS was conducted using GCMS·TQ8040 (Shimadzu Corporation) that was a GC·MS equipped with AOC·20i (Shimadzu Corporation) as an autosampler.
Column: BPX5 (inner diameter of 0.25 mm, length of 30 m, and film thickness of 0.25 μm) (SGE)
Column temperature: maintained at 60° C. for 2 minutes, then raised at 15° C./min, and maintained at 330° C. for 3 minutes.
Inlet temperature: 250° C.
Carrier gas control mode: constant linear velocity of 39.0 cm/sec
Sample introduction method: split (split ratio of 30:1) Injection volume: 1 μL
Ionization method: electron ionization
Ionization current: 60 μA
Interface temperature: 280° C.
Ion source temperature: 200° C.
as §10
Table B presents compounds of which the detection intensity increased or decreased by 30% or more in a case where the time from blood collection to cooling of blood, when a blood plasma sample was analyzed by GC/MS, was set to 5 minutes or more as compared to that in a case where the time was set to 1 minute or less. The rate of increase or decrease in Table B is the value of detection intensity relative to 1 that is the detection intensity in a case where the time from blood collection to cooling is set to 1 minute or less.

[7] = freezing and thawing 10 times vs 2 times
[8] = after 6 hours from blood collection to centrifugation
[9] = freezing and thawing 4 times vs 2 times
[10] = 6 times of freezing and thawing, detection intensity relative to 1 at 2 times
[11] = after 12 hours from blood collection to centrifugation

SMILES | Increase or decrease [2] | Time when compound is affected [2] | Rate of increase or decrease [5, 10] | Number of times when compound is affected [5] [times] | Increase or decrease [5] | Rate of increase or decrease ([4]; freezing and thawing 10 times) | Increase or decrease [4, 7] | Rate of increase or decrease [2, 11] | also measured
N=C(N)NCCC[C@H](N)C(=O)O [Arginine] | Decrease | After 6 hours | 0.64 | 6 | Decrease |  |  |  | Rate of increase or decrease ([1]; freezing and thawing 10 times): 1.51; Increase or decrease [1, 7]: Increase; Rate of increase or decrease [2, 8]: 0.54; Rate of increase or decrease ([3]; after 6 hours): 0.69; Increase or decrease ([3]; after 6 hours vs 15 minutes): Decrease; Rate of increase or decrease ([4]; freezing and thawing 4 times): 1.34; Increase or decrease [4, 9]: Increase
N[C@@H](CCC(=O)O)C(=O)O [Glutamic acid] | Increase | After 4 hours |  | 10 | Decrease | 5.21 | Increase |  | Rate of increase or decrease ([2]; after 4 hours from blood collection to centrifugation): 3.09; Rate of increase or decrease ([5]; 10 times of freezing and thawing, detection intensity relative to 1 at 2 times): 0.63
NCC(=O)O [Glycine] | Increase | After 12 hours | 0.69 | 6 | Decrease |  | Increase | 1.50 | 
O=CC(=O)O [Glyoxylic acid] |  |  |  |  |  |  |  |  | Rate of increase or decrease ([6]; detection intensity relative to 1 at 1 minute or less, blood collection to cooling 5 minutes): 1.37; Increase or decrease ([6]; detection intensity, blood collection to cooling 5 minutes or more vs 1 minute or less): Increase; Rate of increase or decrease ([1]; freezing and thawing 4 times): 0.63; Increase or decrease [1, 9]: Decrease
N[C@@H](Cc1c[nH]cn1)C(=O)O [Histidine] | Increase | After 12 hours | 0.61 | 6 | Decrease | 1.36 | Increase | 1.46 | 
CC[C@H](C)[C@H](N)C(=O)O [Isoleucine] | Increase | After 12 hours |  | 6 | Different from individual | 1.44 | Increase | 1.34 | Increase or decrease ([3]; after 12 hours vs 15 minutes): Different from individual; Rate of increase or decrease (second value, decrease) ([3]; different from individual to individual, individuals with decrease, relative to 1 at 15 minutes, collection to centrifugation, after 12 hours): 0.65; Rate of increase or decrease (first value, increase) ([3]; different from individual to individual, individuals with increase, relative to 1 at 15 minutes, collection to centrifugation, after 12 hours): 1.31; Rate of increase or decrease ([5]; 6 times of freezing and thawing, relative to 1 at 2 times, different from individual to individual, first value (increase)): 1.33; Rate of increase or decrease ([5]; 6 times of freezing and thawing, relative to 1 at 2 times, different from individual to individual, second value (decrease)): 0.66
CC(C)C[C@H](N)C(=O)O [Leucine] | Increase | After 12 hours | 0.66 | 6 | Decrease | 1.35 | Increase | 1.35 | Rate of increase or decrease ([3]; after 12 hours): 0.69; Increase or decrease ([3]; after 12 hours vs 15 minutes): Decrease
O=C(O)CCC(=O)O [Succinic acid] | Increase | After 6 hours |  | 4 | Increase |  |  |  | Rate of increase or decrease [2, 8]: 1.57; Rate of increase or decrease ([3]; after 4 hours): 0.50; Rate of increase or decrease ([3]; after 6 hours): 0.61; Increase or decrease ([3]; after 4 hours vs 15 minutes): Decrease; Increase or decrease ([3]; after 6 hours vs 15 minutes): Decrease; Rate of increase or decrease ([4]; freezing and thawing 4 times): 1.46; Increase or decrease [4, 9]: Increase; Rate of increase or decrease ([5]; 4 times of freezing and thawing, detection intensity relative to 1 at 2 times): 1.47
